# Measured values from patent US9694087B2, “Development of novel macromolecule transduction domain with improved cell permeability and method for using same” (priority 2011, dated 2017).
# Where a SMILES comes first, the peptide text is derived from it. Where no end group is shown, it is not given here. The star is where a group is joined. X1 = O=C(C=Cc1ccc(O)cc1)*
# Legend:
# human skin = test: Primary stimulus test using human skin (patch test); assay type: in vivo; settings: overall evaluation from Table 4
# Experimental: To confirm safety of the modified MTD (M1067) synthesized in Example 4, the modified MTD (M1067)-coumaric acid and the modified MTD (M1067)-acetyl pentapeptide synthesized in Examples 12-1 and 12-2, a primary stimulus test using human skin was performed. The test was conducted by a specialized clinical research organization, Dermapro, and the clinical composition was prepared as will be described below. 30 or more subjects meeting standards for the clinical test and not falling under exclusion standards were selected. Sample materials were applied to backs of the subjects, and removed after 48 hours. The test sites were observed 30 minutes and 24 hours later, after the removal.
# The skin evaluation was performed by the Frosch & Kligman method (Frosch P. J and Kligman A. M. J Am Acad Dermatol, 1(1):35-41 (1979)) and standards shown in Table 3 reflecting the Cosmetic, Toiletry, and Fragrance Association (CTFA) guidelines (The Cosmetic, Toiletry and Fragrance Association, Inc. Washington, D.C. 20005 (1981)), average degrees of reaction after 48 and 72 hours were compared, and results were determined based on the average degree of reaction of each composition.
# HeLa cells = test: Visible cell permeability by confocal microscopy, cervix adenocarcinoma cells; assay type: cell-based, human; settings: 5 μM, 1 hour, FIG. 10
# Experimental: Cell permeability of HeLa cells (HeLa cell, Human cervix adenocarcinoma, Cat No. CCL-2, ATCC, USA) derived from Human cervix adenocarcinoma as cancer-derived cells was compared using a confocal microscope (Carl Zeisse, Germany).
# Particularly, before a test, the HeLa cells were cultured in a 12-well culture plate with a glass cover slip for 24 hours. The HeLa cells were cultured in a DMEM medium containing 10% fetal bovine serum (FBS), and 1% penicillin/streptomycin (10,000 units penicillin and 10,000 μg/mL streptomycin, invitrogen), in a humidified atmosphere with 5% CO2 at 37° C. After 5 μM of peptides was treated to the […] for 1 hour, the cells were fixed with 4% paraformaldehyde (PFA) at room temperature for 20 minutes to observe the cell permeability using a confocal microscope.
# To directly detect internalized MTD-FITC, the cells were washed three times with phosphoric acid buffer and 5 μM of 4′,6-diamidino-2-phenylindole (DAPI), which is a nucleus fluorescence staining solution, was counter-stained. […] In addition, an original form of the cell was observed using a nomarski filter with a confocal microscope, and FITC fluorescence and DAPI fluorescence were observed using a filter suitable for a fluorochrome.
# ICR mice = test: In vivo epithelial tissue (skin) permeability by confocal microscopy; parameters: species or system mouse; settings: FITC-labelled, applied on gauze to back skin, 1, 3, 6 and 12 hours; FIG. 12
# Experimental: After 1, 3, 6, and 12 hours, the mice were sacrificed by cervical dislocation, and skin at the drug-applied parts was extracted. Afterward, the skin was put in 4% paraformaldehyde for 24 hours to fix a tissue and then prepared in a 6 μm cryosection to form a slide. […] The stained tissue was washed again three times with PBS buffer for 10 minutes, fixed with mounting media, and observed by confocal microscopy.
molecule,measurement,setting,value
Met Arg Ala Ala Ala Pro Ala Val Ala Ala Lys*Ther Ther Lys Ser [modified MTD (M1067)-acetyl pentapeptide],evaluation in the human skin primary stimulus test,human skin,low-stimuli materials
CSCC[C@H](N)C(=O)N[C@@H](CCCNC(=N)N)C(=O)N[C@@H](C)C(=O)N[C@@H](C)C(=O)N[C@@H](C)C(=O)N1CCC[C@H]1C(=O)N[C@@H](C)C(=O)N[C@H](C(=O)N[C@@H](C)C(=O)N[C@@H](C)C(=O)O)C(C)C [M1067] (H-MRAAAPAVAA-OH),evaluation in the human skin primary stimulus test,human skin,low-stimuli materials
M1103: modified MTD having an amino acid sequence of SEQ. ID. NO: 17 (MRLALPVLLLA; MTD 1103 Amino Acid Sequence),intracellular localization of the FITC-peptide,HeLa cells,apparently distributed into a cytoplasm
CSCC[C@H](NC(=O)[C@H](CCCNC(=N)N)NC(=O)[C@H](C)NC(=O)[C@H](C)NC(=O)[C@H](C)NC(=O)[C@@H]1CCCN1C(=O)[C@H](C)NC(=O)[C@@H](NC(=O)[C@H](C)NC(=O)[C@H](C)NC(=O)C=Cc1ccc(O)cc1)C(C)C)C(=O)O [modified MTD (M1067)-coumaric acid] (X1-AAVAPAAARM-OH),evaluation in the human skin primary stimulus test,human skin,low-stimuli materials
"GRKKRRQRRR (also: FITC label, place not given here) [Tat, used FITC-labelled, reference compound]",epithelial permeation,ICR mice,epithelial permeation was not induced
same,intracellular localization of the FITC-peptide,HeLa cells,attached to an outside of the cell membrane
